Data set [1] can be described thus: Apparent permeability in Calu-3 cell line. It is filed as in vitro ADME. To be noted: human; air–liquid interface.
Data set [2] can be described thus: Metabolic stability in mouse hepatocytes. Format: in vitro ADME. As to conditions: read-out: Mouse hepatocytes t½.
A short description of data set [3]: Plasma protein binding, human (equilibrium dialysis). Format: in vitro ADME. As to the method: (§1) 1.4.4 Pharmacokinetic and off-target functional assays (Cyprotex)
(§2) Compound 24 was assayed at Cyprotex in functional assays for interference with important off-targets as well as important pharmacokinetic parameters. With the exception of plasma protein binding, a dose-response relationship was studied in order to calculate IC50 values.
(§3) Table S10. Information on in vitro ADMET assays performed at Cyprotex. […]
(§4) Plasma protein binding assay (human and Equilibrium dialysis […]
(§5) An increase in the number of colonies of at least two-fold over baseline (mean + SD of the vehicle control) and a dose response indicate a positive response. An […]
(§6) different from the vehicle control.
(§7) Where indicated, S9 fraction from the livers of Aroclor 1254-treated rats were included in the incubation at a final concentration of 4.5%. A NADPH-regenerating system was also included to ensure a steady supply of reducing equivalents.

A short description of data set [4]: Plasma protein binding, murine (equilibrium dialysis). Format: in vitro ADME, mouse. How it is done: as §1, §2, §3, §4, §5, §6, §7
(In equilibrium dialysis free small molecules cross a membrane that holds back macromolecules.)

A further data set concerns the target T1, AhR receptor (Homo sapiens, UniProt P35869).
T1 construct: Cyprotex
Briefly: AhR nuclear receptor activation, luciferase reporter gene assay. It is filed as cell-based. As to the method:
as §1, §2, §3, §5, §6, §7

The next data set has as its target T2, CYP3A4 (Homo sapiens, UniProt P08684).
T2 construct: Cyprotex
Briefly: Cytochrome P450 inhibition assay, CYP3A4. Format: in vitro ADME. How it is done: as §1, §2, §3, §5, §6, §7

The target in a further data set is T3, CYP2C9 (Homo sapiens, UniProt P11712).
T3 construct: Cyprotex
As to the kind of experiment: Cytochrome P450 inhibition assay, CYP2C9. Format: in vitro ADME. As to conditions: Metabolic activity. As to the method:
as §1, §2, §3, §5, §6, §7

In the next data set the target is T4, CYP2C19 (Homo sapiens, UniProt P33261).
T4 construct: Cyprotex
Briefly: Cytochrome P450 inhibition assay, CYP2C19. It is filed as in vitro ADME. As to conditions: Metabolic activity. How it is done:
as §1, §2, §3, §5, §6, §7

Data set [5] concerns the target T5, Cav1.2 (L-type) human Ca ion channel (Homo sapiens, UniProt Q13936).
T5 construct: Eurofins CYL8051QP2DR
Briefly: cell-based. As to the method: 1.4.2 Further functional off-target assays (Eurofins)
Table S8. Compound 24 was further tested in the following functional assays at Eurofins. […]
Cav1.2 (L-type) human Ca ion channel cell based automated patch >30 µM clamp assay (CYL8051QP2DR) […]
(§8) FLIPR Assay expressed in HEK293 cells
(§9) GABAA α5/β3/γ2 ionotropic receptor (human GABRA5, GABRB3, >30 and GABRG2 genes, expressed in HEK293 cells

The target of data set [6] is T6, BK (KCa1.1/β1) calcium-activated potassium channel (Homo sapiens, UniProt Q12791).
T6 construct: host or cells: CHO cells
Briefly: Ion channel profiling at Charles River: BK. Format: cell-based. As to conditions: expressed in CHO cells; read-out: ESTIMATED IC50. As to the method:
(§10) 1.4.3 Ion Channel Profiling at Charles River
(§11) Table S9. Compound 24 was tested against the following ion channels at Charles River Laboratories. […]
BK (KCa1.1/β1) calcium-activated potassium channel (human >30
KCNMA1 and KCNMB1 genes) expressed in CHO cells
FASTPatch Assay IK (KCa3.1) calcium-activated potassium channel (human KCNN4 >30 gene) expressed in CHO cells […]
as §8, §9

Data set [7] deals with T7, hKv1.5 potassium channels (Homo sapiens, UniProt P22460).
T7 construct: host or cells: CHO cells
As to the kind of experiment: Ion channel profiling at Charles River: hKv1.5. Format: cell-based. As to the method:
as §10, §11
FASTPatch Assay IK (KCa3.1) calcium-activated potassium channel (human KCNN4 >30 gene) expressed in CHO cells
Cloned hKv1.5 potassium channels (encoded by the human 32.6
KCNA5 gene, expressed in CHO cells) […]
as §8, §9

For the next data set, the target named is T8, Kv1.3 potassium channel (Homo sapiens, UniProt P22001).
T8 construct: host or cells: CHO cells
Briefly: Ion channel profiling at Charles River: Kv1.3. It is filed as cell-based. As to conditions: expressed in CHO cells; read-out: ESTIMATED IC50. How it is done: as §10
(§12) Table S9. Compound 24 was tested against the following ion channels at Charles River Laboratories.
(§13) ASSAY TYPE ION CHANNEL AND EXPRESSION SYSTEM ESTIMATED […]
ScreenPatch Assay Kv1.3 potassium channel (human KCNA3 gene) expressed in CHO […]
as §8
(§14) GABAA α5/β3/γ2 ionotropic receptor (human GABRA5, GABRB3, >30
(§15) and GABRG2 genes, expressed in HEK293 cells

The target in the next data set is T9, ENaC channel (Homo sapiens, UniProt P37088+P51168+P51170).
T9 construct: host or cells: HEK293 cells
As to the kind of experiment: Ion channel profiling at Charles River: ENaC. Format: cell-based. As to the method:
as §10, §12, §13
ScreenPatch Assay Kv1.3 potassium channel (human KCNA3 gene) expressed in CHO
ENaC channel (human SCNN1A, SCNN1B and SCNN1G genes, >30
as §8, §14, §15

In the next data set the target is T10, P2X4 receptor (Homo sapiens, UniProt Q99571).
T10 construct: host or cells: HEK293 cells
As to the kind of experiment: Ion channel profiling at Charles River: P2X4. To be noted: expressed in HEK293 cells; read-out: ESTIMATED IC50. Format: cell-based. As to the method: as §10, §11, §8, §9
P2X4 receptor (human P2RX4 gene) expressed in HEK293 cells >30 […]
as §5, §6, §7

Data set [8] relates to Ca2+ channel (L, dihydropyridine site). Briefly: Cerep panel binding assay. On the set-up: species or system rat. As to conditions: 10 µM, antagonist radioligand. How it is done:
(§16) 1.4 Safety Pharmacology of Compound 24
(§17) 1.4.1 Cerep panel (Eurofins)
(§18) Compound 24 was further profiled for its off-target interactions against a panel of 44 targets. The
(§19) screening was done by Eurofins Pharma Discovery within the SafetyScreen44 Panel (Cerep, ITEM
(§20) P270). In all assays binding/functional inhibition was determined at 10 µM.
Table S6. List of binding assays within the CEREP44 off-target panel and binding data for compound

Data set [9] concerns the target T11, Potassium Channel hERG (human) (Homo sapiens, UniProt Q12809).
T11 construct: purchased Eurofins Pharma Discovery (Cerep) SafetyScreen44 Panel, ITEM P270
As to the kind of experiment: Cerep panel binding assay. To be noted: 10 µM, [3H] Dofetilide. How it is done: as §16, §17, §18, §19, §20
Table S6. […]
Potassium Channel hERG (human) [3H] […]

Data set [10] deals with Bronchiectasis clinical isolates, PA14 and PAO1. Briefly: Antimicrobial minimal inhibitory concentrations (MIC), microdilution. To be noted: Pseudomonas aeruginosa. Background: In broth dilution the organism is exposed to a series of concentrations in liquid medium.

Converted amounts (≈) assume the structure as drawn. “And” between values parts separate entries of the source, which are not always exact repeats. Equal entries are not always repeated. Where two headings read alike, the source gives them in different places.

T2 sequence (P08684 whole entry): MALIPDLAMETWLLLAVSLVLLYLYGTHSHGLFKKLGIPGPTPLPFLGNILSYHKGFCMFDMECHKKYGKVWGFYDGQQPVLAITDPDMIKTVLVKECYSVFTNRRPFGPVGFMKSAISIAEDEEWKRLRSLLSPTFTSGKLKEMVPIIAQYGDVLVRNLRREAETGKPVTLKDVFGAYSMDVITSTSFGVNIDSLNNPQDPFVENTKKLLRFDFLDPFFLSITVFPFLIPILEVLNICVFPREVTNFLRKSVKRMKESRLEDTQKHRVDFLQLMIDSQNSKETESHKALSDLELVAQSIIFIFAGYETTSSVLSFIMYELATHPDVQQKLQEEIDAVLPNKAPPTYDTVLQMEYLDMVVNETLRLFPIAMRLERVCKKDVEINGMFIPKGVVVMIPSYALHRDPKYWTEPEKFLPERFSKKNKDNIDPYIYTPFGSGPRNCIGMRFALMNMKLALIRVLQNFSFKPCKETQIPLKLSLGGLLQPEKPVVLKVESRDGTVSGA
T7 sequence (P22460 whole entry): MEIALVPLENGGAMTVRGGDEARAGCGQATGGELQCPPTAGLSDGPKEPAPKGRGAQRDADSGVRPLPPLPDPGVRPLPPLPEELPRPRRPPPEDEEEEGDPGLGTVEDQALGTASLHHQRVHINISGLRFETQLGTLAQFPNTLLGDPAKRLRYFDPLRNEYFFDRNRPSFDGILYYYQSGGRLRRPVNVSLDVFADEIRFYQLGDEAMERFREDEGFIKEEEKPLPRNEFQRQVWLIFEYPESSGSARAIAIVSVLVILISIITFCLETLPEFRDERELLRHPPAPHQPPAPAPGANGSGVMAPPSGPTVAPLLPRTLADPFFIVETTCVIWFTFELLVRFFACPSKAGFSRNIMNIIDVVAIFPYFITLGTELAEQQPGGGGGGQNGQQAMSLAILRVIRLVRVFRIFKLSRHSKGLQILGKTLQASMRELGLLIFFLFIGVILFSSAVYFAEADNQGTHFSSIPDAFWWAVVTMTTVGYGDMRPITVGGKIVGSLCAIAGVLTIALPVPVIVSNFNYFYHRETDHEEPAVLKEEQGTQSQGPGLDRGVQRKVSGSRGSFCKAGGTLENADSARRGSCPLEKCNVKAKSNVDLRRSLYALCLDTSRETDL
T1 sequence (P35869 11-848): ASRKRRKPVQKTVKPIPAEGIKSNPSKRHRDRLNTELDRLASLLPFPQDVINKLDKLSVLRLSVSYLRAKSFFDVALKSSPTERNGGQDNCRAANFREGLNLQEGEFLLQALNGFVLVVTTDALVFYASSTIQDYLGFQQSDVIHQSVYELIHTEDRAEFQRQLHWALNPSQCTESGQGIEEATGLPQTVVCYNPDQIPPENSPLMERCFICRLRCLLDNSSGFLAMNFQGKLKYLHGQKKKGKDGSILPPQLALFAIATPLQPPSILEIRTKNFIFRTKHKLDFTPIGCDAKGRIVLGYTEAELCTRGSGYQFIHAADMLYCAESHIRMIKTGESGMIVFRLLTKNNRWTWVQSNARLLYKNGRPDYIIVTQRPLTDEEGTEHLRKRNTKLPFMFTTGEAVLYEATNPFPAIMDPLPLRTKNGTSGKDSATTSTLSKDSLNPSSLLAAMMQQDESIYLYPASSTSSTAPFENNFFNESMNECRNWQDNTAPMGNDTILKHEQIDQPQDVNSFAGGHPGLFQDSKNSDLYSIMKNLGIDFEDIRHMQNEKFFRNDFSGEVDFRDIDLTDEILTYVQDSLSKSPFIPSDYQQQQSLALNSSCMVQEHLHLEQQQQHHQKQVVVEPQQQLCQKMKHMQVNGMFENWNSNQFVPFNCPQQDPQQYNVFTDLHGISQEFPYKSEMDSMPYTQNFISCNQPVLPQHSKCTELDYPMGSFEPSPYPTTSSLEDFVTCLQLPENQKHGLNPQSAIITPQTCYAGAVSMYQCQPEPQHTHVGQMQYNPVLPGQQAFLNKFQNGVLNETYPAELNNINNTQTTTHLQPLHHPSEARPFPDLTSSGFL
T11 sequence (Q12809 whole entry): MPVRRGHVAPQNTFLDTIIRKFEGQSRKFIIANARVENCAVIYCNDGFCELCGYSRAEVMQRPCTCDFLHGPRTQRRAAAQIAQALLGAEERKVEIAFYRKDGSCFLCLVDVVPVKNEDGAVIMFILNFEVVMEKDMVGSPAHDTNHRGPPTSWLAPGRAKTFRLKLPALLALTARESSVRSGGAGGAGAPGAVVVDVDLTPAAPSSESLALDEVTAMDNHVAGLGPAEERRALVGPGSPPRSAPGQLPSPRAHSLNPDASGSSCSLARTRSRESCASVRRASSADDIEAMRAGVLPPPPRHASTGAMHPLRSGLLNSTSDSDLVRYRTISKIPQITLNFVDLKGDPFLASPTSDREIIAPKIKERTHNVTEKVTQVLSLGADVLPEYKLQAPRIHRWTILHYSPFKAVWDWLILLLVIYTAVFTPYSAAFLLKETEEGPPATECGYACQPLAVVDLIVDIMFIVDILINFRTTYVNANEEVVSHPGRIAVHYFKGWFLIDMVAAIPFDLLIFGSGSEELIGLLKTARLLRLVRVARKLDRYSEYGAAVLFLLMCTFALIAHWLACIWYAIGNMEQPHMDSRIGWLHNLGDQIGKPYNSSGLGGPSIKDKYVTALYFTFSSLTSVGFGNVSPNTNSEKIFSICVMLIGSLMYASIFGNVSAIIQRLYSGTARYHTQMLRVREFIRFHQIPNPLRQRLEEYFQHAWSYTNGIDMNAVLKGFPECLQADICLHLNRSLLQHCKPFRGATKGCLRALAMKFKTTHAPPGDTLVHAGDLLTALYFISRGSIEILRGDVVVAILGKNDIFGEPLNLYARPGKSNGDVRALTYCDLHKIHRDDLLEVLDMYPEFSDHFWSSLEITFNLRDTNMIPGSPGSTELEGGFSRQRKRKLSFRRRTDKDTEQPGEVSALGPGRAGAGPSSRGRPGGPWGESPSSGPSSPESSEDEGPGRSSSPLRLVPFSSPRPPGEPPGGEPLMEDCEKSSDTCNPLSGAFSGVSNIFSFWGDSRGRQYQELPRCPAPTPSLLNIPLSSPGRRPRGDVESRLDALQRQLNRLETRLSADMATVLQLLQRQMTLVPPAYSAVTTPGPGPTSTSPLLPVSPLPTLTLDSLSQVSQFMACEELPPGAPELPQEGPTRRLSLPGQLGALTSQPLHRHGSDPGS
T8 sequence (P22001 whole entry): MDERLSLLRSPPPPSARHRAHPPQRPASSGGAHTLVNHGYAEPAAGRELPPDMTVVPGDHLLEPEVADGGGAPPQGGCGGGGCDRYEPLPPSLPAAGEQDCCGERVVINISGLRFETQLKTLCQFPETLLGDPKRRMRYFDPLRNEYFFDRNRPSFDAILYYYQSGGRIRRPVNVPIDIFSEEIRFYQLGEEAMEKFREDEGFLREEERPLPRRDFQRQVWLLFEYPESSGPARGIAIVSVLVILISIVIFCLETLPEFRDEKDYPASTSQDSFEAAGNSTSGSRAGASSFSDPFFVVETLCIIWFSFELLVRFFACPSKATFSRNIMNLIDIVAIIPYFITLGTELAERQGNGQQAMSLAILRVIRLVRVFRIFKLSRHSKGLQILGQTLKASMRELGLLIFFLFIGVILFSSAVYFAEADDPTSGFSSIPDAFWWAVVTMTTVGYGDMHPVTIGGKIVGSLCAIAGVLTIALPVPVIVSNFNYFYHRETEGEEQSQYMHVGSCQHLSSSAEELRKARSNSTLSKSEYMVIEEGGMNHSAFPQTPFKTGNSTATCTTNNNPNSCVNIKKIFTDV
T3 sequence (P11712 whole entry): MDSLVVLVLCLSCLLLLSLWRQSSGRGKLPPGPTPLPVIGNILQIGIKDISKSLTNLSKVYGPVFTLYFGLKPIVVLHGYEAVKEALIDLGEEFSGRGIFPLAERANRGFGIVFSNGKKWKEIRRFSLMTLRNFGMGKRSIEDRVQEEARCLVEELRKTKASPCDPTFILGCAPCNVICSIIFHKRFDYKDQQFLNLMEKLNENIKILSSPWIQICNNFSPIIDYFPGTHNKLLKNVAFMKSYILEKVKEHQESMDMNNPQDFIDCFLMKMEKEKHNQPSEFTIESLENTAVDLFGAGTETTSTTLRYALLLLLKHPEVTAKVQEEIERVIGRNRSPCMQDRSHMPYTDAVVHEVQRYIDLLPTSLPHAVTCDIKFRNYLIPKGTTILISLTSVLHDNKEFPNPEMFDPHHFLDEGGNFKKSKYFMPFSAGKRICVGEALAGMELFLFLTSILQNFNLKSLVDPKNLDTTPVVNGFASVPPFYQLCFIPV
T10 sequence (Q99571 whole entry): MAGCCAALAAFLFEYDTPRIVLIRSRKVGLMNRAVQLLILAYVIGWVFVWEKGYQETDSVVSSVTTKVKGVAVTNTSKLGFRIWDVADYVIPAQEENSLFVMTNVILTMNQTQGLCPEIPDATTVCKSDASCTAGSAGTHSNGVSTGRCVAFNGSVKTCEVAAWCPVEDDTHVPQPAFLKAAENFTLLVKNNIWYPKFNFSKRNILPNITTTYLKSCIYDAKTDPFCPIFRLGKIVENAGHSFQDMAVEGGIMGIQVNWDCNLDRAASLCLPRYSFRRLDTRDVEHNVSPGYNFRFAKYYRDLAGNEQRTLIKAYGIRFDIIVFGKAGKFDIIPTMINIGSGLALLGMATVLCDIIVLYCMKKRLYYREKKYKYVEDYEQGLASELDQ

What is called Papp is a coefficient for how fast a substance crosses the barrier. Broadly, the IC50 is the concentration that inhibits the measured activity by half. For the molecule `CC(C)Oc1ccc(-c2ncc(CNc3ccnc(C(F)(F)F)c3)cn2)cc1Cl` [Compound 24], the apparent permeability coefficient (Papp) at 4 h in [1] came out at 3.1 ± 0.28 ×10⁻⁶ cm/s. For the same molecule, the half-life in data set [2] was found to be 9 min. This molecule also had a Plasma binding human in data set [3] of over 99%. The Plasma binding murine in [4] is over 99%. Also, the “fold AhR receptor induction” value on AhR receptor (fold activation @1 × 10^−6 M) is given as 0.91 @1 × 10^−6 M ^a). Further, at AhR receptor (up to 25 × 10^−6 M), the AhR induction entry is reported as “Neither AhR induction”. Besides, the IC50 at CYP3A4 (Metabolic activity, activation observed) was over 25 µM; against CYP2C9, over 25 µM; at CYP2C19, over 25 µM; in data set [5], over 30 µM; in data set [6] it was over 30 µM; in data set [7] (expressed in CHO cells, read-out: ESTIMATED IC50) it was 32.6 µM. The half-inhibitory concentration (IC50) in data set [7] (read-out: hKv1.5 functional inhibition IC50) was about 30 µM; at Kv1.3 potassium channel it was over 30 µM; against ENaC channel it was over 30 µM; on P2X4 receptor, over 30 µM. For the same molecule, the CYP3A4 activation at CYP3A4 (at 10 × 10^−6 M) is on record as over 50%. Further, the “BINDING (%)” value in data set [8] is 75.3% and > 50%; in data set [9], 73.1% and > 50%.

By MIC is commonly meant the smallest concentration in the dilution series that meets the test's criterion for growth inhibition. Turning to `NC[C@H]1O[C@H](O[C@H]2[C@H](O)[C@@H](O[C@H]3O[C@H](CO)[C@@H](O)[C@H](N)[C@H]3O)[C@H](N)C[C@@H]2N)[C@H](N)C[C@@H]1O` [Tobramycin, tobramycin], the MIC is 1 µg/mL (≈ 2.14 µM) in data set [10] (PA14|PAO1, strain column 1 of 16 (strain heads not assignable)); 1 µg/mL (≈ 2.14 µM) in [10] (strain column 2 of 16); at most 0.5 µg/mL in [10] (strain column 3 of 16); at most 0.5 µg/mL in [10] (strain column 4 of 16); at most 0.5 µg/mL in data set [10] (strain column 5 of 16); at most 0.5 µg/mL in data set [10] (strain column 6 of 16). Besides, the MIC was at most 0.5 µg/mL in data set [10] (strain column 7 of 16); 2 µg/mL (≈ 4.28 µM) in data set [10] (strain column 8 of 16); 1 µg/mL (≈ 2.14 µM) in [10] (strain column 9 of 16); at most 0.5 µg/mL in data set [10] (strain column 10 of 16); at most 0.5 µg/mL in [10] (strain column 11 of 16); at most 0.5 µg/mL in data set [10] (strain column 12 of 16). Besides, the MIC in data set [10] (strain column 13 of 16), in data set [10] (strain column 14 of 16), in data set [10] (strain column 15 of 16) and in data set [10] (strain column 16 of 16) was at most 0.5 µg/mL in each case.
